Reference: patent US20100063089A1, “SUCCINATE SALT OF 2-((4-(1-METHYL-4-PYRIDIN-4-YL)-1H-PYRAZOL-3-YL)PHENOXY)METHYL)QUINOLINE” (PFIZER INC, priority 2006, published 2010)

Key:
[1] = isothermal moisture sorption test; format: physicochemical; settings: at 90±2% relative humidity; isothermal 25.1±0.1° C.; conducted from approximately 1% to 90% (±2%) humidity
Procedure: In another embodiment, the succinate salt increases in weight by less than 0.5% at 90±2% relative humidity in an isothermal (25.1±0.1° C.) moisture sorption test conducted from approximately 1% to 90% (±2%) humidity.

[2] = solid-state properties for formulation (deliquescence, hygroscopicity); format: physicochemical; settings: solid salt

Cn1cc(-c2ccncc2)c(-c2ccc(OCc3ccc4ccccc4n3)cc2)n1.O=C(O)CCC(=O)O [succinate salt, succinate salt of 2-((4-(1-methyl-4-(pyridin-4-yl)-1H-pyrazol-3-yl)phenoxy)methyl)quinoline]
increase in weight in moisture sorption test [1]: less than 0.5%
deliquescence [2]: not deliquescent
hygroscopicity [2]: non-hygroscopic
